# From patent publication US20210038732A1, “ANTICANCER MICRORNA AND LIPID FORMULATIONS THEREOF” (INTERNA TECHNOLOGIES B.V., priority 2018, published 2021)
# Columns and labels:
# Type in all cases: cell-based, human
# A2058 = assay: Cell viability (MTS assay or cell count); details: 10 nM; Melanoma A2058; normalized to mock
# Protocol: (§1) Depending on cancer cell type 3000-6000 cells were seeded in a 96 well plate. After cells attached, they were transfected with different concentrations of miRNA-193a and viability was measured at different time points. Viability measurement was performed using CellTiter 96 AQueous One Solution Cell Proliferation Assay (Promega). 20 μL of MTS reagent was added to 100 μL of media in each well in 96-well plate and incubated for 2 hours at 37° C. Absorbance was measured at 490 nm for each sample in 96 well plate reader.
# (§2) Different biological effects of miRNA-193a-3p have been tested in various cancer cell lines (see Table 13). For this, various cells were treated with miRNA-193a at different concentrations (1, 3, 10 nM). For all experiments controls (untreated, mock and scrambled) were measured. […] Data shown in Table 13 are the results for miRNA-193a at 10 nM concentration at indicated time points. All the results have been quantified and normalized to the mock control.
# (§3) miRNA-193a treatment in various cancer cell lines decreased cell viability over time as measured by either an MTS assay or by cell count. It enhanced apoptosis induction over time as measured by a caspase 3/7 apoptosis assay. […] It is of note that due to intrinsic characteristics and gene mutation status of each cell line, performing one method to detect apoptosis is not always ideal for all cell lines.
# A549, H460 = assay: Cell viability (MTS assay or cell count); details: 10 nM; NSCLC A549, H460; normalized to mock
# Protocol: as §1, §2, §3
# HeP3B, SNU449 = assay: Cell viability (MTS assay or cell count); details: 10 nM, HCC HeP3B, normalized to mock
# Protocol: as §1, §2, §3
# Huh7 = assay: Cell viability (MTS assay or cell count); details: 10 nM; HCC Huh7; normalized to mock
# Protocol: as §1, §2, §3
# A2058 melanoma cells = assay: Malachite Green Phosphate Assay (free phosphate generation); details: miRNA-193a-3p at 10 nM, vs untreated, mock, scrambled
# Protocol: 2000 A2058 melanoma cells were seeded per well in a 96 well plate. 24h after seeding, cells were transfected with different concentrations of miRNA-193a-3p, scrambled control, siNT5E and siPool as control. Malachite Green Phosphate Assay (Sigma Aldrich) was used to measure the liberation of phosphate from nucleoside triphosphates ATP following inhibition of CD39 (ENTPD1) and CD73 (NT5E) as target genes of miRNA-193a-3p 24h and 48h post transfection. The rapid colour formation from the reaction can be conveniently measured on a plate reader (600-660 nm).
substance,measurement,setting,value
"miRNA-193a: duplex of the miRNA-193a-3p of SEQ ID NO: 218 (mimic, sense) with antisense strand SEQ ID NO: 219; naked in vitro, formulated in vivo (sense UGGGACUUUGUAGGCCAGUUTT; antisense AACUGGCCUACAAAGUCCCAGU; chemistry not given here; listed as Homo sapiens)",Viability (96 h),A2058,↓↓ (Viability < 50%)
same,Viability (96 h),"A549, H460",↓↓ (Viability < 50%)
same,Viability (96 h),"HeP3B, SNU449",↓↓ (Viability < 50%)
same,Viability (96 h),Huh7,↓↓ (Viability < 50%)
same,Free phosphate generation,A2058 melanoma cells,reduced the level of free phosphate production
